Assay results from ChEMBL document CHEMBL2169801, “Development of o-chlorophenyl substituted pyrimidines as exceptionally potent aurora kinase inhibitors” (J Med Chem, 2012).
≈ marks a conversion by molar mass, not a printed value.

experiment: physchem; conditions: buffer, pH 7.4

Structure (SMILES)	solubility [µg/mL]
Fc1cnc(Nc2ccc(-c3nnn[nH]3)cc2)nc1Nc1ccccc1Cl	49 (≈ 128 µM)
Clc1ccccc1Nc1ccnc(Nc2ccc(-c3nnn[nH]3)cc2)n1	49 (≈ 134 µM)
Oc1cc(Nc2ncc(F)c(Nc3ccccc3Cl)n2)ccc1-c1nnn[nH]1	49 (≈ 123 µM)
Clc1ccccc1Nc1nc(Nc2ccc(-c3nnn[nH]3)cc2)ncc1Cl	49 (≈ 123 µM)

experiment: not given; conditions: buffer

Structure (SMILES)	solubility
O=C(O)c1ccc(Nc2nccc(Nc3ccccc3F)n2)cc1	Insoluble
O=C(O)c1ccc(Nc2nccc(Nc3ccccc3Cl)n2)cc1O	Insoluble
O=C(O)c1ccc(Nc2nccc(Nc3ccccc3Cl)n2)cc1	Insoluble
O=C(O)c1ccc(Nc2ncc(F)c(Nc3ccccc3C(=O)O)n2)cc1	Insoluble
